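Briefly, cells in 96-well plates were exposed to five compound concentrations for 48 h, and endpoints were estimated by linear interpolation. TGI denotes the concentration required for complete inhibition of growth.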
Legend:
Assay in all cases: NCI tumour cell line growth inhibition, 48 h
KM12 colon = test system: KM12 colon
ACHN renal = test system: ACHN renal
SF-539 CNS = test system: SF-539 CNS
MDA-MB-231 breast = test system: MDA-MB-231 breast
SK-OV-3 ovarian = test system: SK-OV-3 ovarian
SW-620 colon = test system: SW-620 colon
NCI/ADR-RES ovarian = test system: NCI/ADR-RES ovarian
CCRF-CEM leukemia = test system: CCRF-CEM leukemia
MCF7 breast = test system: MCF7 breast
HCT-116 colon = test system: HCT-116 colon
K-562 leukemia = test system: K-562 leukemia
HOP-62 NSCLC = test system: HOP-62 NSCLC
BT-549 breast = test system: BT-549 breast
COLO 205 colon = test system: COLO 205 colon
HCT-15 colon = test system: HCT-15 colon
SK-MEL-5 melanoma = test system: SK-MEL-5 melanoma
UO-31 renal = test system: UO-31 renal
HL-60(TB) leukemia = test system: HL-60(TB) leukemia
RPMI-8226 leukemia = test system: RPMI-8226 leukemia
A498 renal = test system: A498 renal
NCI-H226 lung = test system: NCI-H226 lung
NCI-H522 lung = test system: NCI-H522 lung
A549 NSCLC = test system: A549 NSCLC
SF-295 CNS = test system: SF-295 CNS
OVCAR-8 ovarian = test system: OVCAR-8 ovarian
MOLT-4 leukemia = test system: MOLT-4 leukemia
786-0 renal = test system: 786-0 renal
HOP-92 NSCLC = test system: HOP-92 NSCLC
LOX IMVI melanoma = test system: LOX IMVI melanoma
CAKI-1 renal = test system: CAKI-1 renal
T-47D breast = test system: T-47D breast
MDA-N = test system: MDA-N
NCI-H460 lung = test system: NCI-H460 lung
UACC-62 melanoma = test system: UACC-62 melanoma
EKVX NSCLC = test system: EKVX NSCLC
OVCAR-3 ovarian = test system: OVCAR-3 ovarian
NCI-H23 lung = test system: NCI-H23 lung
HT29 colon = test system: HT29 colon
SK-MEL-28 melanoma = test system: SK-MEL-28 melanoma
OVCAR-4 ovarian = test system: OVCAR-4 ovarian
SNB-19 CNS = test system: SNB-19 CNS
MALME-3M melanoma = test system: MALME-3M melanoma
U251 CNS = test system: U251 CNS
SNB-75 CNS = test system: SNB-75 CNS
IGROV1 ovarian = test system: IGROV1 ovarian
RXF 393 renal = test system: RXF 393 renal
SN12C renal = test system: SN12C renal
TK-10 renal = test system: TK-10 renal
DU-145 prostate = test system: DU-145 prostate
MDA-MB-435 = test system: MDA-MB-435
SK-MEL-2 melanoma = test system: SK-MEL-2 melanoma
M14 melanoma = test system: M14 melanoma
HS 578T breast = test system: HS 578T breast
UACC-257 melanoma = test system: UACC-257 melanoma
SF-268 CNS = test system: SF-268 CNS
HCC-2998 colon = test system: HCC-2998 colon
OVCAR-5 ovarian = test system: OVCAR-5 ovarian
PC-3 prostate = test system: PC-3 prostate

Measured: TGI

COC(=O)C1=C(OC(=O)/C(=C/c2ccccc2)c2ccc([N+](=O)[O-])cc2)C(C(=O)OC)[C@@]2(O)[C@@H](C(=O)OC)[C@H](C)C[C@@H]1[C@@H]2C(=O)OC (some centres undefined)
> 100 µM: all assays above

O=C(O)/C(=C/c1ccccc1)c1ccccc1
not listed: COLO 205 colon | NCI-H226 lung
> 100 µM: all other assays above

From PubChem BioAssay (NCI)
